Data published in patent US20090187040A1, “FENOFIBRIC ACID POLYMORPHS; METHODS OF MAKING; AND METHODS OF USE THEREOF” (priority 2008, published 2009).

Assays:
[1] = cited from earlier work
[2] = Fenofibric acid polymorph slurry study (form by XRPD or Raman); assay type: physicochemical; conditions: for relative thermodynamic stability of the enantiotropically related forms: Form A versus Form B, by temperature
Experimental: Approximately 30-45 mg in combination of Form B and Form A are weighed to an 8-mL vial outfitted with a stir bar. Solvent (water, toluene, and 1:1 water/IPA, DCM or MeCN) in the amount of 1 mL is added. The samples are sealed with a Teflon cap and parafilm and then placed on a magnetic stirrer at room temperature or 45° C. An aliquot is then sampled after 7 days and 21 days for determination of form by XRPD or Raman (Table 7).

Solubility in water = assay type: physicochemical; conditions: noted in lyophilization example
[3] = Grinding study of Form B in a ball mill (XRPD); assay type: physicochemical; conditions: ground for 30 seconds using a ball mill
Experimental: Approximately 50 mg of Form B is ground for 30 seconds using a ball mill and the resulting material is analyzed by XRPD.

In the case of CC(C)OC(=O)C(C)(C)Oc1ccc(C(=O)c2ccc(Cl)cc2)cc1 [Fenofibrate, 2-[4-(4-chlorobenzoyl)phenoxy]-2-methyl-propanoic acid, 1-methylethyl ester], the “effect on high-density lipoprotein (HDL) and apoproteins apoAI and apoAII” value ([1]; treatment with fenofibrate) is given as “results in increases”.
For CC(C)(Oc1ccc(C(=O)c2ccc(Cl)cc2)cc1)C(=O)O [Fenofibric acid, 2-[4-(4-chlorobenzoyl)phenoxy]-2-methyl-propanoic acid], the “effect on total cholesterol, LDL cholesterol, apolipoprotein B, total triglycerides and triglyceride rich lipoprotein (VLDL)” value ([1]; treated patients) is listed as “produces reductions”.
For CC(C)(Oc1ccc(C(=O)c2ccc(Cl)cc2)cc1)C(=O)O [Form A + B, 2-[4-(4-chlorobenzoyl)phenoxy]-2-methyl-propanoic acid], the “Form, 21 Days (XRPD/Raman)” value ([2]; slurry in Toluene 1 mL, 45 °C) was “A + B” and the “Form, 7 Days (XRPD/Raman)” value ([2]; slurry in Water 1 mL, RT) was “A + B”.
With CC(C)(Oc1ccc(C(=O)c2ccc(Cl)cc2)cc1)C(=O)O [Form A, 2-[4-(4-chlorobenzoyl)phenoxy]-2-methyl-propanoic acid] the “relative thermodynamic stability of the enantiotropically related forms” value [2] was “more stable at elevated temperatures (e.g., above about 45° C.)”, the “Form, 7 Days (XRPD/Raman)” value ([2]; slurry in DCM 1 mL, 45 °C) was “A + B” and the “Form, 21 Days (XRPD/Raman)” value ([2]; slurry in DCM 1 mL, 45 °C) was “A + B”. The “Form, 21 Days (XRPD/Raman)” value ([2]; slurry in Water 1 mL, RT) was “Diffuse” and the solubility in water (Solubility in water) was “limited solubility”.
With CC(C)(Oc1ccc(C(=O)c2ccc(Cl)cc2)cc1)C(=O)O [Form B, 2-[4-(4-chlorobenzoyl)phenoxy]-2-methyl-propanoic acid] the “relative thermodynamic stability of the enantiotropically related forms” value [2] was “more thermodynamically stable at lower temperatures (e.g., room temperature)”, the “Form, 7 Days (XRPD/Raman)” value ([2]; slurry in DCM 1 mL, 45 °C) was “A + B” and the “Form, 21 Days (XRPD/Raman)” value ([2]; slurry in DCM 1 mL, 45 °C) was “A + B”. For the same compound, the “form observed after grinding (XRPD)” value [3] was “Form A is observed”.
